Measurements taken from ChEMBL document CHEMBL4507296 (2021).
Activity calls are given as the source filed them. The rule behind the calls is not given here.

Assays:
[1] = molecular target: Transient receptor potential cation channel subfamily M member 8 (Homo sapiens, UniProt Q7Z2W7); assay: Cold activation
[2] = molecular target: MTNR1B (Cricetulus griseus) (UniProt G3H6N9); assay: Melatonin 2 (hamster) CEREP ligand profiling; details: Compound concentration 10.0 uM
[3] = test system: Tyrosine-protein kinase ABL1 (Homo sapiens), P00519 [T315I]; details: Compound concentration 1000.0 nM
[4] = molecular target: Tyrosine-protein kinase ABL1 (Homo sapiens) (UniProt P00519); details: Compound concentration 1000.0 nM
[5] = molecular target: Serine/threonine-protein kinase B-raf (Homo sapiens) (UniProt P15056); details: Compound concentration 1000.0 nM
Chain of Serine/threonine-protein kinase B-raf (Homo sapiens) (P15056 whole entry): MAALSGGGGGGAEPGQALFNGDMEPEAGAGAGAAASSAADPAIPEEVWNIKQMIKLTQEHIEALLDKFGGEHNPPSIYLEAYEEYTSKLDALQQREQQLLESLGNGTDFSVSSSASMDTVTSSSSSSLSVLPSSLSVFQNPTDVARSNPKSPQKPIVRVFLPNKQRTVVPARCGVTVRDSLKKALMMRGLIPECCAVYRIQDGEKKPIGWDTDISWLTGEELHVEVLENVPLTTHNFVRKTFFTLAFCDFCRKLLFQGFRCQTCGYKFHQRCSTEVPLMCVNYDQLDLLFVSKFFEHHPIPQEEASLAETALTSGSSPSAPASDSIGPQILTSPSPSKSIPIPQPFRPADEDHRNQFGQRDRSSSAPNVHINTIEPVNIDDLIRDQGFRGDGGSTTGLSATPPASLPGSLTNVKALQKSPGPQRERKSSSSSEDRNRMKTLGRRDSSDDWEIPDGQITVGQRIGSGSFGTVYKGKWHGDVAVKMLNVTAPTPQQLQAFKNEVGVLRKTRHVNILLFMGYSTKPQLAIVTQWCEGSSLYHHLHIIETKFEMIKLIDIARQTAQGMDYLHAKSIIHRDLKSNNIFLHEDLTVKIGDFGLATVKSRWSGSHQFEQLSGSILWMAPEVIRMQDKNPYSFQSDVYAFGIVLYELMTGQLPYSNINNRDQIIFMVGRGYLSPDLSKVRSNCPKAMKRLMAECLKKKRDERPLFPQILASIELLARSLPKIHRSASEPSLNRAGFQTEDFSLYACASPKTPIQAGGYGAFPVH

[6] = molecular target: Calcium/calmodulin-dependent protein kinase kinase 1 (Homo sapiens) (UniProt Q8N5S9); details: Compound concentration 1000.0 nM
Chain of Calcium/calmodulin-dependent protein kinase kinase 1 (Homo sapiens) (Q8N5S9 whole entry, looked up): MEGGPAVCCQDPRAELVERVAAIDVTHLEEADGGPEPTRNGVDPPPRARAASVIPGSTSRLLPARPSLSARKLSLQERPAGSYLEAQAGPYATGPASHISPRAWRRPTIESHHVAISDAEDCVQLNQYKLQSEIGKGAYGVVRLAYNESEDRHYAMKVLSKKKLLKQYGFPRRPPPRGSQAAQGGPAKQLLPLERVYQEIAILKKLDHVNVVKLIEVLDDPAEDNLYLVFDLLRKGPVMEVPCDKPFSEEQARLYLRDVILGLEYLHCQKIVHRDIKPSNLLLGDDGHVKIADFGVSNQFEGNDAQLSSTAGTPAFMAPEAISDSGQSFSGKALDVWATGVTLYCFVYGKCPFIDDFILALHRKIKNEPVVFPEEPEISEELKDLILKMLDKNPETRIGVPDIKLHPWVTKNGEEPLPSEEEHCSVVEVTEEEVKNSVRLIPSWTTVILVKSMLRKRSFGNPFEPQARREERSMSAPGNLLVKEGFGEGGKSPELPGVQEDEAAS

[7] = molecular target: Cyclin-dependent kinase-like 1 (Homo sapiens) (UniProt Q00532); details: Compound concentration 1000.0 nM
[8] = molecular target: Casein kinase I isoform gamma-1 (Homo sapiens) (UniProt Q9HCP0); details: Compound concentration 1000.0 nM
[9] = molecular target: Death-associated protein kinase 2 (Homo sapiens) (UniProt Q9UIK4); details: Compound concentration 1000.0 nM
[10] = molecular target: Eukaryotic translation initiation factor 2-alpha kinase 1 (Homo sapiens) (UniProt Q9BQI3); details: Compound concentration 1000.0 nM
[11] = molecular target: Ephrin type-B receptor 4 (Homo sapiens) (UniProt P54760); details: Compound concentration 1000.0 nM
Chain of Ephrin type-B receptor 4 (Homo sapiens) (P54760 whole entry): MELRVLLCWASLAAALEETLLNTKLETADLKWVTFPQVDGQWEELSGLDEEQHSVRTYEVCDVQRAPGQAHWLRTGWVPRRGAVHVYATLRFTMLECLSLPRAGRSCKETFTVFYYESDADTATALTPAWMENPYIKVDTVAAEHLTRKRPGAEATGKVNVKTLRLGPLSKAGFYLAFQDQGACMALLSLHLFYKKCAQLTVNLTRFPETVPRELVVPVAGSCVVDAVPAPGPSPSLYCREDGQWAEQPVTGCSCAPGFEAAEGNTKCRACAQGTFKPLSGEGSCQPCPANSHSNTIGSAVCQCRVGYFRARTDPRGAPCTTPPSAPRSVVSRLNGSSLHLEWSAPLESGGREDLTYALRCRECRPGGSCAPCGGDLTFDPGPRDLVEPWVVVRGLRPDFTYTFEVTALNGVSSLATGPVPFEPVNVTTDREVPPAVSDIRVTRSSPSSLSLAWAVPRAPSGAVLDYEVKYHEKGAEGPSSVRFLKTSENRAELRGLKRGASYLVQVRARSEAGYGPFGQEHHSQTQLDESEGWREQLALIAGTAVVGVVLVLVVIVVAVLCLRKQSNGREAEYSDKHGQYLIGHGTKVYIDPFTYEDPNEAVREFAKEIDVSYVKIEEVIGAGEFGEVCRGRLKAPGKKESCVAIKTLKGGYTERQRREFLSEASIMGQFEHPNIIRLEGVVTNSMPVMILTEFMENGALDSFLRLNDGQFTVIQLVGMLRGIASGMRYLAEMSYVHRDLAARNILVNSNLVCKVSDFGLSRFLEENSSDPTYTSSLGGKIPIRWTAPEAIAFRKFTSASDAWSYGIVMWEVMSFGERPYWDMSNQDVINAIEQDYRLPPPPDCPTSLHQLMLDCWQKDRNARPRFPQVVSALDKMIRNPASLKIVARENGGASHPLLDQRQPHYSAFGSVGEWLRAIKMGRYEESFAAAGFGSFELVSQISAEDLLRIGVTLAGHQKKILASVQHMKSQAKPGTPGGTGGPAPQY

[12] = molecular target: Receptor tyrosine-protein kinase erbB-2 (Homo sapiens) (UniProt P04626); details: Compound concentration 1000.0 nM
[13] = molecular target: Receptor-type tyrosine-protein kinase FLT3 (Homo sapiens) (UniProt P36888); details: Compound concentration 1000.0 nM
[14] = molecular target: G protein-coupled receptor kinase 3 (Homo sapiens) (UniProt P35626); details: Compound concentration 1000.0 nM
[15] = molecular target: Serine/threonine-protein kinase haspin (Homo sapiens) (UniProt Q8TF76); details: Compound concentration 1000.0 nM
[16] = molecular target: Tyrosine-protein kinase HCK (Homo sapiens) (UniProt P08631); details: Compound concentration 1000.0 nM
[17] = molecular target: Insulin receptor (Homo sapiens) (UniProt P06213); details: Compound concentration 1000.0 nM
[18] = test system: Mast/stem cell growth factor receptor Kit (Homo sapiens), P10721 [V559D]; details: Compound concentration 1000.0 nM
Chain of Mast/stem cell growth factor receptor Kit (Homo sapiens), P10721 [V559D] (P10721 whole entry V559D): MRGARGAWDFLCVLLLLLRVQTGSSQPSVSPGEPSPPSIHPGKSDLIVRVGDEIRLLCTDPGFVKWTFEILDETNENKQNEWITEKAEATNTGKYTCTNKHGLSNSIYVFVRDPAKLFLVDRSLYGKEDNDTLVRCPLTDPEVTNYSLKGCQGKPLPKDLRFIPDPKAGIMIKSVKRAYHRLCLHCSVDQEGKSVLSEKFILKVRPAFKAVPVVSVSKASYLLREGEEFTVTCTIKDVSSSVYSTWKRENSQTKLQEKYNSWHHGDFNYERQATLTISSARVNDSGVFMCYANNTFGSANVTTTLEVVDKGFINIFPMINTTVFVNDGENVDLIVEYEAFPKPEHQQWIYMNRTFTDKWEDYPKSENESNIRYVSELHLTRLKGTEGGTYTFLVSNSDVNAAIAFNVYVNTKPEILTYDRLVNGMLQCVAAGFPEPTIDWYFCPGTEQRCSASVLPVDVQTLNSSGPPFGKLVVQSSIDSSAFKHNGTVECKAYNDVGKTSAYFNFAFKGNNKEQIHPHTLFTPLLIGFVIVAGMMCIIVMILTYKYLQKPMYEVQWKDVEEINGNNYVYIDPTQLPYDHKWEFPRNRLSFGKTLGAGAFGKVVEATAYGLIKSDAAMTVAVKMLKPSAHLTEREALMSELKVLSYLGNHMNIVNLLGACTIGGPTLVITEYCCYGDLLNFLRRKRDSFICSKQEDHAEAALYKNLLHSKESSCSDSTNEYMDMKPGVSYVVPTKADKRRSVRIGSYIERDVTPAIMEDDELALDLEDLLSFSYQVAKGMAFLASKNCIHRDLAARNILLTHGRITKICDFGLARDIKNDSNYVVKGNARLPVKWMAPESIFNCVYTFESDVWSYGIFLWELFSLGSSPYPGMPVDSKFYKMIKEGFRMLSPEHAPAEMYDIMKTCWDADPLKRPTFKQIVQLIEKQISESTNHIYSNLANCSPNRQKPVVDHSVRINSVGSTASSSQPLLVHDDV

[19] = molecular target: Mast/stem cell growth factor receptor Kit (Homo sapiens) (UniProt P10721); details: Compound concentration 1000.0 nM
Chain of Mast/stem cell growth factor receptor Kit (Homo sapiens) (P10721 whole entry, the tested form may be a part): as the sequence (P10721 whole entry V559D) above, with D559V counted along it

[20] = molecular target: LIM domain kinase 1 (Homo sapiens) (UniProt P53667); details: Compound concentration 1000.0 nM
Chain of LIM domain kinase 1 (Homo sapiens) (P53667 whole entry, looked up, the tested form may be a part): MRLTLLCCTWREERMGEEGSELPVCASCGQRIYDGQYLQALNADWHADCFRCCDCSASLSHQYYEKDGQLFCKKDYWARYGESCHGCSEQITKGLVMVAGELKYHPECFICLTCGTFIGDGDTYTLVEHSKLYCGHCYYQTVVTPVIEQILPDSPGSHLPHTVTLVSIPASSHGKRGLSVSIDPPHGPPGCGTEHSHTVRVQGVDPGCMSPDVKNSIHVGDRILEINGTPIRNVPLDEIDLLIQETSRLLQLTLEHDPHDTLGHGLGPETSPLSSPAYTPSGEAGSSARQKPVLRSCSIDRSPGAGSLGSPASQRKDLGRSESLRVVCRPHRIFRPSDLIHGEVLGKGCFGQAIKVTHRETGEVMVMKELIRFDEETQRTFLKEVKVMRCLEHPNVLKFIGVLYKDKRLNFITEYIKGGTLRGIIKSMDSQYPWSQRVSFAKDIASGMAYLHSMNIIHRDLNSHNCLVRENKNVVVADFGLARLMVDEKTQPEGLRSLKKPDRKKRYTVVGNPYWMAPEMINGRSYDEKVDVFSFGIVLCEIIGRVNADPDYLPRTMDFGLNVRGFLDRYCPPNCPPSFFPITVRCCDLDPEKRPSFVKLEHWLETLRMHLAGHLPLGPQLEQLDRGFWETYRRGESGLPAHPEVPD

[21] = molecular target: Mitogen-activated protein kinase kinase kinase 13 (Homo sapiens) (UniProt O43283); details: Compound concentration 1000.0 nM
[22] = molecular target: Serine/threonine-protein kinase MARK1 (Homo sapiens) (UniProt Q9P0L2); details: Compound concentration 1000.0 nM
[23] = molecular target: Dual specificity mitogen-activated protein kinase kinase 2 (Homo sapiens) (UniProt P36507); details: Compound concentration 1000.0 nM
[24] = molecular target: Dual specificity mitogen-activated protein kinase kinase 4 (Homo sapiens) (UniProt P45985); details: Compound concentration 1000.0 nM
[25] = molecular target: Macrophage-stimulating protein receptor (Homo sapiens) (UniProt Q04912); details: Compound concentration 1000.0 nM
[26] = molecular target: Serine/threonine-protein kinase 24 (Homo sapiens) (UniProt Q9Y6E0); details: Compound concentration 1000.0 nM
[27] = molecular target: Serine/threonine-protein kinase Nek5 (Homo sapiens) (UniProt Q6P3R8); details: Compound concentration 1000.0 nM
[28] = molecular target: Serine/threonine-protein kinase PAK 4 (Homo sapiens) (UniProt O96013); details: Compound concentration 1000.0 nM
Chain of Serine/threonine-protein kinase PAK 4 (Homo sapiens) (O96013 whole entry, looked up): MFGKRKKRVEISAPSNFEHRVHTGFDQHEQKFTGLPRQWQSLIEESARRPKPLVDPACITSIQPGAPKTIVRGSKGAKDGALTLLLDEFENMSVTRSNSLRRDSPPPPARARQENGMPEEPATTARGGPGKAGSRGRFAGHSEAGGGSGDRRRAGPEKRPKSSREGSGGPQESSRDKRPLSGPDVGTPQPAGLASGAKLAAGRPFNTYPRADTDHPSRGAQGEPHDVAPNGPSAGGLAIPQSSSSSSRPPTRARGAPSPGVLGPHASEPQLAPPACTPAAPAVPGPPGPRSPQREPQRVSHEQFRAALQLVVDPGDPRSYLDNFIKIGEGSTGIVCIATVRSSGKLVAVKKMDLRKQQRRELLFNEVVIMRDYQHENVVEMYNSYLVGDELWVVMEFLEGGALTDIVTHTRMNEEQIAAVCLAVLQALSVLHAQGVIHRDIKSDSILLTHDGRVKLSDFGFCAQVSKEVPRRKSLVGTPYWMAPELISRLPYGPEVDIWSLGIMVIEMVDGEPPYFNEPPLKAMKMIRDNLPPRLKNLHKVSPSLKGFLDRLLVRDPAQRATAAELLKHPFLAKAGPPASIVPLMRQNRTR

[29] = molecular target: Serine/threonine-protein kinase PAK 6 (Homo sapiens) (UniProt Q9NQU5); details: Compound concentration 1000.0 nM
[30] = molecular target: Cyclin-dependent kinase 18 (Homo sapiens) (UniProt Q07002); details: Compound concentration 1000.0 nM
[31] = molecular target: Serine/threonine-protein kinase pim-2 (Homo sapiens) (UniProt Q9P1W9); details: Compound concentration 1000.0 nM
[32] = molecular target: cAMP-dependent protein kinase catalytic subunit beta (Homo sapiens) (UniProt P22694); details: Compound concentration 1000.0 nM
[33] = molecular target: Serine/threonine-protein kinase PLK4 (Homo sapiens) (UniProt O00444); details: Compound concentration 1000.0 nM
[34] = molecular target: Protein-tyrosine kinase 2-beta (Homo sapiens) (UniProt Q14289); details: Compound concentration 1000.0 nM
[35] = test system: Proto-oncogene tyrosine-protein kinase receptor Ret (Homo sapiens), P07949 [M918T]; details: Compound concentration 1000.0 nM
[36] = molecular target: SRSF protein kinase 3 (Homo sapiens) (UniProt Q9UPE1); details: Compound concentration 1000.0 nM
[37] = molecular target: STE20/SPS1-related proline-alanine-rich protein kinase (Homo sapiens) (UniProt Q9UEW8); details: Compound concentration 1000.0 nM
[38] = molecular target: Tyrosine-protein kinase Tec (Homo sapiens) (UniProt P42680); details: Compound concentration 1000.0 nM
[39] = molecular target: Dual specificity testis-specific protein kinase 1 (Homo sapiens) (UniProt Q15569); details: Compound concentration 1000.0 nM
[40] = molecular target: BDNF/NT-3 growth factors receptor (Homo sapiens) (UniProt Q16620); details: Compound concentration 1000.0 nM
[41] = molecular target: 5-hydroxytryptamine receptor 1B (Homo sapiens) (UniProt P28222); details: Compound concentration 10.0 uM
Chain of 5-hydroxytryptamine receptor 1B (Homo sapiens) (P28222 whole entry): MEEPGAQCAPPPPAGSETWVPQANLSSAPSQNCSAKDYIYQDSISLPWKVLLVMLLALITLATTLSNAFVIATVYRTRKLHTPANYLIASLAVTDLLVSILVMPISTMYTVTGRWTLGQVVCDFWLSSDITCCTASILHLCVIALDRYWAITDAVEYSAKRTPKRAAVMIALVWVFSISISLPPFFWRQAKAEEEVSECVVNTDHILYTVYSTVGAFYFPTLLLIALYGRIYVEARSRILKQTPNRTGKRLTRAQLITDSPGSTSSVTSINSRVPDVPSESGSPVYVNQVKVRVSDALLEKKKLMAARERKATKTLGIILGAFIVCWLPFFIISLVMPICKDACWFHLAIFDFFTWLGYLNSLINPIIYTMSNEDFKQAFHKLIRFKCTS

[42] = molecular target: 5-hydroxytryptamine receptor 2A (Homo sapiens) (UniProt P28223); details: Compound concentration 10.0 uM
[43] = molecular target: GABA-A receptor; anion channel (Rattus norvegicus) (UniProt O09028+P15431+P18506+P18508+P19969+P20236+P23574+P23576+P28471+P28473+P30191+P62813+P63079+P63138+Q91ZM7+Q9ES14); details: Compound concentration 10.0 uM
[44] = molecular target: Beta-1 adrenergic receptor (Homo sapiens) (UniProt P08588); details: Compound concentration 10.0 uM

`C[C@H](c1ccc(F)cc1)N(Cc1cccc(C(=O)O)c1)C(=O)c1cnc2ccccc2c1` [PF-05105679] was tested, and the IC50 [1] was 480 nM (active), the inhibition [2] was 32% and the residual activity [3] was 75%. It also gave a residual activity [4] of 76%, a residual activity [5] of 90% and a residual activity [6] of 100%. For the same compound, the residual activity [7] was 100%, the residual activity [8] was 91% and the residual activity [9] was 88%. For the same compound, the residual activity [10] was 84%, the residual activity [11] was 100% and the residual activity [12] was 100%. It also gave a residual activity [13] of 100%, a residual activity [14] of 40% and a residual activity [15] of 100%. For the same compound, the residual activity [16] was 88%, the residual activity [17] was 100% and the residual activity [18] was 92%. For the same compound, the residual activity [19] was 100%, the residual activity [20] was 100% and the residual activity [21] was 75%. It also gave a residual activity [22] of 100%, a residual activity [23] of 100% and a residual activity [24] of 100%. The residual activity [25] was 100%, the residual activity [26] was 100% and the residual activity [27] was 100%. It also gave a residual activity [28] of 100%, a residual activity [29] of 100% and a residual activity [30] of 100%. It also gave a residual activity [31] of 100%, a residual activity [32] of 82% and a residual activity [33] of 100%. It also gave a residual activity [34] of 100%, a residual activity [35] of 86% and a residual activity [36] of 92%. For the same compound, the residual activity [37] was 82%, the residual activity [38] was 80% and the residual activity [39] was 100%. It also gave a residual activity [40] of 100%, an inhibition [41] of 4.38% and an inhibition [42] of -0.2%. It also gave an inhibition [43] of 28.4% and an inhibition [44] of 7.42%.
